In patent US20130267494A1, “1,4-OXAZEPANE DERIVATIVES” (priority 2010, published 2013):
Counter-ions that a name gives are not always drawn. Like-named read-outs stand apart in the source and are kept apart here.

Experiments:
Format in all cases: cell-based
[1] = molecular target: T1, human serotonin transporter (Homo sapiens, UniProt P31645); experiment: Inhibitory action on human serotonin transporter ([3H]-5-hydroxytryptamine uptake in CHO cells); details: relative to inhibitory activity of 10 μM Paroxetine as 100%; for inhibition at 1 µM: CHO, read-out: inhibitory rate (%)
T1 construct: expressed in transfected cells
In short: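 CHO-K1 cells stably expressing human SERT, plated overnight, took up [3H]-5-HT (diluted to 200 nM before a 1:10 addition) for 20 min in HEPES-buffered saline with glucose and 0.5% BSA; radioactivity counted by scintillation. Compounds at 10 μM or 1 μM, activity expressed relative to 10 μM paroxetine set as 100%.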

[2] = molecular target: T2, human norepinephrine transporter (Homo sapiens, UniProt P23975); experiment: Inhibitory action on human norepinephrine transporter ([3H]-norepinephrine uptake in CHO cells); details: relative to inhibitory activity of 10 μM DMI as 100%; for inhibition at 1 µM: CHO
T2 construct: expressed in transfected cells
In short: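 Stably transfected CHO-K1 cells plated overnight, then given test compound and [3H]-norepinephrine (20 nM final, from 200 nM) in HEPES-buffered saline with 0.5% BSA for 45 min. After PBS washes, retained radioactivity counted by scintillation. Inhibition at 10 μM or 1 μM compound expressed relative to 10 μM DMI as 100%.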

[3] = molecular target: T3, human dopamine transporter (Homo sapiens, UniProt Q01959); experiment: Inhibitory action on human dopamine transporter ([3H]-dopamine uptake in CHO cells); details: relative to inhibitory activity of 100 μM Nomifensine as 100%; for inhibition at 1 µM: CHO, read-out: inhibitory rate (%)
T3 construct: expressed in transfected cells
In short: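 CHO-K1 cells stably expressing human dopamine transporter, exposed to compound at 10 μM or 1 μM in HEPES-buffered saline with 0.5% BSA. [3H]-dopamine uptake measured over 60 min by scintillation counting. Activity expressed relative to 100 μM nomifensine as 100%.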

[4] = compound 1 μM, read-out: inhibitory rate (%)

T1 sequence (P31645 whole entry): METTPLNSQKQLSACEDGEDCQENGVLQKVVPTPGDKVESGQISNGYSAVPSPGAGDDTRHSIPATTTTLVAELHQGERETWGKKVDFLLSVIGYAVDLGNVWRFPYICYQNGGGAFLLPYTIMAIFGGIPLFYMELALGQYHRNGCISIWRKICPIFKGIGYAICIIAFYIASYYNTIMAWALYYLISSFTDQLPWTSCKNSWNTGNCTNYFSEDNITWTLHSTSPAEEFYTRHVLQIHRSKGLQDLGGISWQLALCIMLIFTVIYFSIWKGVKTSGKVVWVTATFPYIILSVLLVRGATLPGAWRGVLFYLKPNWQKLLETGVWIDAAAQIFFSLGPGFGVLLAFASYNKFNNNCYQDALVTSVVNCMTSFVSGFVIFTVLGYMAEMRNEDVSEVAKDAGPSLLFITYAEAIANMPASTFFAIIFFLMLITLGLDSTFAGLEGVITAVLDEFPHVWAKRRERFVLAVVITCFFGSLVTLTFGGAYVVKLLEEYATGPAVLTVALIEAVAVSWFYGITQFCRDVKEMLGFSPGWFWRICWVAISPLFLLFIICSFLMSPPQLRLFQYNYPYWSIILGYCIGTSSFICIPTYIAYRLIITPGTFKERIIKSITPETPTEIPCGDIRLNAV
T2 sequence (P23975 whole entry): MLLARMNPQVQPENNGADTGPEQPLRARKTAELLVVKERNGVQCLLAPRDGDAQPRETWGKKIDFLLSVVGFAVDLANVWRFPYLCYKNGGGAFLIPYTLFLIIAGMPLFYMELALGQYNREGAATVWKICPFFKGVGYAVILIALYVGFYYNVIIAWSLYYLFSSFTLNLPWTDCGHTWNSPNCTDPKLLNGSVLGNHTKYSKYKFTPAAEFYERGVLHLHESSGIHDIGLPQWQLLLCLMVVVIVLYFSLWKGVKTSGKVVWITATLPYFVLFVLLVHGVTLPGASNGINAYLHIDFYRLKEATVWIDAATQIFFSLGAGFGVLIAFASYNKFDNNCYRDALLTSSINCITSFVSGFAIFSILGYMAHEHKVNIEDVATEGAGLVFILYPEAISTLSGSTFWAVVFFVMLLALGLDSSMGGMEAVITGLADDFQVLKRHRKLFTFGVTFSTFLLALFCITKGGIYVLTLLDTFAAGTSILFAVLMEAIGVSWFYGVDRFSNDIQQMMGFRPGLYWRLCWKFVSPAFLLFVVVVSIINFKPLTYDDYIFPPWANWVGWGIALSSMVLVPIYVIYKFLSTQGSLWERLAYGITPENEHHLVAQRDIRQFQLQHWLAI
T3 sequence (Q01959 whole entry): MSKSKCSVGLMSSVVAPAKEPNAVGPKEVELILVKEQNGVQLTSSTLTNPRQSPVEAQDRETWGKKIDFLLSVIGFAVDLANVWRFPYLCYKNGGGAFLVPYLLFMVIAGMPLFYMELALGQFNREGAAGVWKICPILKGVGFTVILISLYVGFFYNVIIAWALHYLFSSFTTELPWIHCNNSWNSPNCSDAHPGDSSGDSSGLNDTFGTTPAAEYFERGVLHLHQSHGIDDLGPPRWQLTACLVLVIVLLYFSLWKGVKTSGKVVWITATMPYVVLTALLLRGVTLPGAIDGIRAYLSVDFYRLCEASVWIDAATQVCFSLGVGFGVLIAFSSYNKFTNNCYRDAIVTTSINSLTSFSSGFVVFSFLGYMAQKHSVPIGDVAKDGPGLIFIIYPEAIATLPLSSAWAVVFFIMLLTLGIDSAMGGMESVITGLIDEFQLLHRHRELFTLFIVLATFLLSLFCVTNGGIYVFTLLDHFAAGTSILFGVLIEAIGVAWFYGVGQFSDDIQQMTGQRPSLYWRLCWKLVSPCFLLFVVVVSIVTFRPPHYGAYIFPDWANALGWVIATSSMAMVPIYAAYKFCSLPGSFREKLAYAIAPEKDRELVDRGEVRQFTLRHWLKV

Row | SMILES | inhibition at 1 µM ([1]; compound 1 μM) [%] | inhibition at 1 µM [2, 4] [%] | inhibition at 1 µM ([3]; compound 1 μM) [%] | further results
1 | OC[C@H]1NCCOC[C@@H]1c1ccc(Cl)c(Cl)c1 (racemic) [Example 14, [(5RS,6SR)-6-(3,4-dichlorophenyl)-1,4-oxazepan-5-yl]methanol monohydrochloride] | – | – | – | inhibitory rate (%) ([1]; compound 1 μM): 31%; inhibitory rate (%) ([1]; compound 10 μM, CHO cells expressing human serotonin transporter): 79%; inhibitory rate (%) ([2]; compound 1 μM): 98%; inhibitory rate (%) ([2]; compound 10 μM): 100%; inhibitory rate (%) ([3]; compound 1 μM): 87%; inhibitory rate (%) ([3]; compound 10 μM): 99%
2 | O=C1CNC(=O)N1C[C@@]1(c2ccc(Cl)c(Cl)c2)CCNCCO1 [Example 439, 3-{[(7S)-7-(3,4-dichlorophenyl)-1,4-oxazepan-7-yl]methyl}imidazolidine-2,4-dione monohydrochloride] | 74 | 98 | 7 | –
3 | CS(=O)(=O)N[C@@H]1CNCCO[C@@H]1c1ccc(Cl)c(Cl)c1 (racemic) [Example 63, N-[(6RS,7RS)-7-(3,4-dichlorophenyl)-1,4-oxazepan-6-yl]methanesulfonamide monohydrochloride] | 93 | 100 | 82 | –
4 | CS(=O)(=O)N[C@H]1CNCCO[C@@H]1c1ccc(Cl)c(Cl)c1 [Example 266, N-[(6S,7R)-7-(3,4-dichlorophenyl)-1,4-oxazepan-yl]methanesulfonamide monohydrochloride] | 82 | 103 | 76 | –
5 | O=c1cccnn1C[C@@H]1OCCNC[C@H]1c1ccc(Cl)c(Cl)c1 [Example 515, 2-{[(6R,7R)-6-(3,4-dichlorophenyl)-1,4-oxazepan-7-yl]methyl}pyridazin-3(2H)-one monohydrochloride] | 82 | 104 | 53 | –
6 | CS(=O)(=O)NC[C@H]1OCCNC[C@H]1c1ccc(Cl)c(Cl)c1 [Example 467, N-{[(6R,7S)-6-(3,4-dichlorophenyl)-1,4-oxazepan-7-yl]methyl}methanesulfonamide monohydrochloride] | 38 | 102 | 60 | –
7 | OCC1CNCCOC1c1ccc(Cl)c(Cl)c1 (stereo not drawn) [Example 49, [(6R*,7R*)-7-(3,4-dichlorophenyl)-1,4-oxazepan-6-yl]methanol monohydrochloride (retention time long)] | – | – | – | inhibitory rate (%) ([1]; compound 1 μM): 87%; inhibitory rate (%) ([2]; compound 1 μM): 98%; inhibitory rate (%) ([3]; compound 1 μM): 41%
8 | OCCOC[C@H]1OCCNC[C@@H]1c1ccc(Cl)c(Cl)c1 (racemic) [Example 495, 2-{[(6RS,7RS)-6-(3,4-dichlorophenyl)-1,4-oxazepan-7-yl]methoxy}ethanol monohydrochloride] | 59 | 105 | 42 | –
9 | CC(=O)N(C)C[C@]1(O)CNCCO[C@H]1c1ccc(Cl)c(F)c1 (relative stereo) [Example 563, N-{[(6R*,7S*)-7-(4-chloro-3-fluorophenyl)-6-hydroxy-1,4-oxazepan-6-yl]methyl}-N-methylacetamide monohydrochloride (retention time short)] | 87 | 103 | 2 | –
10 | O=c1cccnn1C[C@H]1OCCNC[C@H]1c1ccc(Cl)c(Cl)c1 [Example 481, 2-{[(6R,7S)-6-(3,4-dichlorophenyl)-1,4-oxazepan-7-yl]methyl}pyridazin-3(2H)-one monohydrochloride] | 76 | 100 | 61 | –
11 | O=S(=O)(NC[C@@]1(O)CNCCO[C@@H]1c1ccc(Cl)c(Cl)c1)C(F)F (racemic) [Example 521, N-{[(6RS,7SR)-7-(3,4-dichlorophenyl)-6-hydroxy-1,4-oxazepan-6-yl]methyl}-1,1-difluoromethanesulfonamide monohydrochloride] | 84 | 104 | 76 | –
12 | O=c1[nH]c(-c2cccnc2O[C@H]2CNCCOC2c2ccc(Cl)c(Cl)c2)no1 (mixture of isomers) [Example 236, 3-(2-{[(6RS,7SR)-7-(3,4-dichlorophenyl)-1,4-oxazepan-yl]oxy}pyridin-3-yl)-1,2,4-oxadiazol-5(4H)-one monohydrochloride] | 92 | 105 | 93 | –
13 | OCCOC[C@@H]1OCCNC[C@H]1c1ccc(Cl)c(Cl)c1 [Example 496, 2-{[(6R,7R)-6-(3,4-dichlorophenyl)-1,4-oxazepan-7-yl]methoxy}ethanol monohydrochloride] | 62 | 105 | 57 | –
14 | CO[C@]1(CNS(C)(=O)=O)CNCCO[C@@H]1c1ccc(Cl)c(Cl)c1 (racemic) [Example 523, N-{[(6RS,7SR)-7-(3,4-dichlorophenyl)-6-methoxy-1,4-oxazepan-6-yl]methyl}methanesulfonamide monohydrochloride] | 64 | 91 | 2 | –
15 | NC(=O)NC[C@@H]1CNCCO[C@H]1c1ccc(Cl)c(Cl)c1 [Example 152, 1-{[(6S,7R)-7-(3,4-dichlorophenyl)-1,4-oxazepan-6-yl]methyl}urea monofumarate] | 89 | – | 59 | inhibition at 1 µM ([2]; read-out: inhibitory rate (%), compound 1 μM): 95%
16 | O=C(NC[C@@H]1CNCCO[C@H]1c1ccc(Cl)c(Cl)c1)c1ccccc1 [Example 126, N-{[(6S,7R)-7-(3,4-dichlorophenyl)-1,4-oxazepan-6-yl]methyl}benzamide monohydrochloride] | 97 | 103 | 27 | –

Further lines, with some results ahead:

Row | inhibition at 1 µM ([1]; compound 1 μM) [%] | inhibition at 1 µM [2, 4] [%] | inhibition at 1 µM ([3]; compound 1 μM) [%] | SMILES | further results
17 | 87 | 91 | 13 | OC[C@@H]1CNCCO[C@@H]1c1ccc(F)c(Cl)c1 (racemic) [Example 278, [(6RS,7RS)-7-(3-chloro-4-fluorophenyl)-1,4-oxazepan-6-yl]methanol monohydrochloride] | –
18 | 71 | 100 | 12 | Cc1ccc(C2OCCNCC2CO)cc1Cl (stereo not drawn) [Example 405, [(6R*,7S*)-7-(3-chloro-4-methylphenyl)-1,4-oxazepan-6-yl]methanol monohydrochloride (retention time short)] | –
19 | 99 | 97 | 29 | CCNC(=O)NC[C@@H]1CNCCO[C@@H]1c1ccc(Cl)c(Cl)c1 (racemic) [Example 52, 1-{[(6RS,7RS)-7-(3,4-dichlorophenyl)-1,4-oxazepan-6-yl]methyl}-3-ethylurea monohydrochloride] | –
20 | 99 | 103 | 57 | O=C(NC[C@@H]1CNCCO[C@H]1c1ccc(Cl)c(F)c1)c1ccc[nH]c1=O [Example 367, N-{[(6S,7R)-7-(4-chloro-3-fluorophenyl)-1,4-oxazepan-6-yl]methyl}-2-oxo-1,2-dihydropyridine-3-carboxamide monohydrochloride] | –
21 | 28 | 99 | 68 | OC[C@H](O)[C@H]1OCCNC[C@H]1c1ccc(Cl)c(Cl)c1 [Example 578, (1S)-1-[(6R, 7S)-6-(3,4-dichloro-phenyl)-1,4-oxazepan-7-yl]ethane-1,2-diol] | –
22 | 61 | 96 | 49 | OC[C@@H](O)[C@H]1OCCNC[C@H]1c1ccc(Cl)c(Cl)c1 [Example 579, (1R)-1-[(6R, 7S)-6-(3,4-dichloro-phenyl)-1,4-oxazepan-7-yl]ethane-1,2-diol] | –
23 | 52 | 100 | 10 | OC[C@@H]1CNCCO[C@H]1c1ccc(Cl)c(F)c1 [Example 301, [(6S,7R)-7-(4-chloro-3-fluorophenyl)-1,4-oxazepan-6-yl]methanol monohydrochloride] | –
24 | 91 | 102 | 38 | CS(=O)(=O)C[C@@]1(O)CNCCO[C@@H]1c1ccc(Cl)c(F)c1 (racemic) [Example 538, (6RS,7RS)-7-(4-chloro-3-fluorophenyl)-6-[(methylsulfonyl)methyl]-1,4-oxazepan-6-ol monohydrochloride] | –
25 | 95 | 95 | 22 | CS(=O)(=O)C[C@@H]1CNCCOC1c1ccc(F)c(Cl)c1 (mixture of isomers) [Example 281, (6RS,7SR)-7-(3-chloro-4-fluorophenyl)-6-[(methylsulfonyl)methyl]-1,4-oxazepane monohydrochloride] | –
